Laboratory results taken from US10787425B2, “Thiazolidinedione derivative and use thereof” (INDUSTRY-ACADEMIC COOPERATION FOUNDATION CHOSUN UNIVERSITY, priority 2016, dated 2020).

What was measured:
15-PGDH = 15-PGDH (Homo sapiens (Human), UniProt P15428); experiment: 15-PGDH inhibitory activity (NADH at 340 nm); format: biochemical; details: concentration inhibiting 50% of 15-PGDH activity; purified 15-PGDH, 21 μM PGE2, 0.25 mM NAD+
Description: The 15-PGDH cDNA plasmid containing the BamHI of the pGEX-2T expression vector and EcoRI restriction enzyme sites was transfected into E. coli BL-21 LysS by using conventional methods used in the art. Then, the transfected cells were cultured in an LB medium (500 ml) containing 50 μg/ml of ampicillin at a temperature of 37° C. and at a rate of 220 rpm until the OD600 reached 0.6. Then, isopropyl beta-D-thiogalactoxide (1 mM) was added and the cells were further cultured at the temperature of 25° C. for 12 hours. The cells were then centrifuged at the gravity of 4,000 g for 30 minutes at a temperature of 4° C. to collect a cell pellet. The cell pellet was dissolved in 20 ml of cell lysis buffer (containing 1×PBS buffer (pH 7.4): 1 mM EDTA and 0.1 mM DTT) and sonicated at a temperature of 4° C. for 14×10 s. The digested cells were centrifuged at the gravity of 4,000 g for 20 minutes at a temperature of 4° C. The supernatant was then slowly loaded onto a glutathione-sepharose 4B column equilibrated at a temperature of 4° C. with cell lysis buffer [containing 1×PBS buffer (pH 7.4), 1 mM EDTA, and 0.1 mM DTT]. Washing was performed thereon by using a dissolution buffer until the OD280 reached 0.005 or less. Then, 15-PGDH was eluted from the glutathione-sepharose 4B column at room temperature for 5 minutes by using an elution buffer [containing 50 mM Tris-HCl (pH 8.0), 10 mM reduced glutathione, 1 mM EDTA, and 0.1 mM DTT). The concentration of the purified enzyme was measured, and the purification level thereof was confirmed by SDS-PAGE.
That is, the cells were treated with a solution including 50 mM Tris-HCl (pH 7.5), 0.1 mM DTT, 0.25 mM (NAD+), 10 μg of purified 15-PGDH enzyme, 21 μM PGE2. and various concentrations (0.0001 μM to 64 μM) of the derivative compound according to the present disclosure. In this case, the total volume of the solution was 2 ml. Then, the absorbance of the reaction mixture was recorded at the wavelength of 340 nm. To measure the activity of the derivative compounds according to the present disclosure, which is an inhibitor of 15-PGDH, the average value of NADH absorbance at 340 nm at various concentrations was obtained from a standard curve.

A549 cells = experiment: Measurement of PGE2 concentration in A549 cell medium (ELISA); format: cell-based, human; details: for Increment %: PGE2 concentration versus PBS control, 5 μM, 12 hours; for PGE2 concentration: inhibitor 5 μM, medium collected after 12 hours, ELISA
Description: A549 cells were subcultured in RPMI 1640 medium (containing+8% fetal bovine serum (FBS) and antibiotic-antimycotic (AA)) for one week, and then, inoculated in a 6-well plate at 2.5×10^5 cells/mL (5×10^5 cells/well) and cultured for 24 hours in a 5% CO2 incubator at a temperature of 37° C. A549 cells are adenocarcinomic human alveolar basal epithelial cells which are derived from lung tissues. When cells were grown to about 80% confluence, a 15-PGDH inhibitor in 1×PBS buffer was injected at a concentration of 5 μM. To compare the results, the same amount of 1×PBS buffer was injected into a negative control, and, the treated cells were cultured in 5% CO2 incubator. After 12 hours, the medium was collected and the collected medium was assayed to measure PGE2 concentration by using an ELISA Kit (Abcam) according to the manufacturer's instructions. The concentration may be expressed as an exact value by plotting the calibration curve by using the absorbance value after diluting the standard in the medium by concentration.

Chain of 15-PGDH (P15428 whole entry): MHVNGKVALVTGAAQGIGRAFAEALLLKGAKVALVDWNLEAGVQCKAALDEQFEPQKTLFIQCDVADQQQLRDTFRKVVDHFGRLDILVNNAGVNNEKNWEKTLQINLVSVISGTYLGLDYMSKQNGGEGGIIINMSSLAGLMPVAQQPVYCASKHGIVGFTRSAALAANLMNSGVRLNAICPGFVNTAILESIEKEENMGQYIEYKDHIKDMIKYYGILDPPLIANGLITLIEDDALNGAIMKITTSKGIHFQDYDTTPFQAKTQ

O=C(O)c1ccccc1.O=C1NC(=O)/C(=C/c2ccc(OC(=O)c3ccccc3)c(Cl)c2)S1 [Compound 11, (Z)-2-chloro-4-((2,4-dioxothiazolidin-5-ylidene)methyl)phenyl benzoate]
IC50 (15-PGDH): 31.9 nM
Increment % (A549 cells): −78.32%
PGE2 concentration (A549 cells): 25.95 pg/mL

O=C(CCC1CCCC1)Oc1cccc(/C=C2\SC(=O)NC2=O)c1Cl [Compound 80, (Z)-2-chloro-3-((2,4-dioxothiazolidin-5-ylidene)methyl)phenyl 3-cyclopentylpropanoate]
IC50 (15-PGDH): 34.7 nM
Increment % (A549 cells): 97.99%
PGE2 concentration (A549 cells): 236.9453 pg/mL

O=C(CCC1CCCC1)Oc1ccc(/C=C2\SC(=O)NC2=O)cc1Cl [Compound 5, (Z)-2-chloro-4-((2,4-dioxothiazolidin-5-ylidene)methyl)phenyl 3-cyclopentylpropanoate]
IC50 (15-PGDH): 30.5 nM
Increment % (A549 cells): 83.07%
PGE2 concentration (A549 cells): 501.1889 pg/mL

O=C(CCCc1ccccc1)Oc1ccc(/C=C2\SC(=O)NC2=O)c(Cl)c1 [Compound 104, (Z)-3-chloro-4-((2,4-dioxothiazolidin-5-ylidene)methyl)phenyl 4-phenylbutanoate]
IC50 (15-PGDH): 74.9 nM
Increment % (A549 cells): 213.4577%
PGE2 concentration (A549 cells): 349.9990 pg/mL

CCOc1cc(/C=C2\SC(=O)NC2=O)ccc1OC(=O)C1CCCCC1 [Compound 51, (Z)-4-((2,4-dioxothiazolidin-5-ylidene)methyl)-2-ethoxyphenyl cyclohexanecarboxylate]
IC50 (15-PGDH): 549 nM
Increment % (A549 cells): 3.34%
PGE2 concentration (A549 cells): 283.1296 pg/mL

COc1cc(/C=C2\SC(=O)NC2=O)ccc1OC(=O)CCc1ccccc1 [Compound 43, (Z)-4-((2,4-dioxothiazolidin-5-ylidene)methyl)-2-methoxyphenyl 3-phenylpropanoate]
IC50 (15-PGDH): 28.6 nM
Increment % (A549 cells): 113.27%
PGE2 concentration (A549 cells): 432.4258 pg/mL

CCOc1cc(/C=C2\SC(=O)NC2=O)ccc1OC(=O)CCCC1CCCCC1 [Compound 54, (Z)-4-((2,4-dioxothiazolidin-5-ylidene)methyl)-2-ethoxyphenyl 4-cyclohexylbutanoate]
IC50 (15-PGDH): 23.8 nM
Increment % (A549 cells): 202.57%
PGE2 concentration (A549 cells): 828.9774 pg/mL

COc1cc(/C=C2\SC(=O)NC2=O)ccc1OC(=O)C1CCCCC1 [Compound 36, (Z)-4-((2,4-dioxothiazolidin-5-ylidene)methyl)-2-methoxyphenyl cyclohexanecarboxylate]
IC50 (15-PGDH): 242 nM
Increment % (A549 cells): 101.32%
PGE2 concentration (A549 cells): 408.196 pg/mL

O=C(Cc1ccccc1)Oc1ccc(/C=C2\SC(=O)NC2=O)c(Cl)c1 [Compound 102, (Z)-3-chloro-4-((2,4-dioxothiazolidin-5-ylidene)methyl)phenyl 2-phenylacetate]
IC50 (15-PGDH): 75.3 nM
Increment % (A549 cells): 99.2022%
PGE2 concentration (A549 cells): 222.4242 pg/mL

COc1cc(/C=C2\SC(=O)NC2=O)ccc1OC(=O)c1ccccc1.O=C(O)c1ccccc1 [Compound 41, (Z)-4-((2,4-dioxothiazolidin-5-ylidene)methyl)-2-methoxyphenyl benzoate]
IC50 (15-PGDH): 151 nM
Increment % (A549 cells): −88.34%
PGE2 concentration (A549 cells): 23.64 pg/mL

COc1cc(/C=C2\SC(=O)NC2=O)ccc1OC(=O)CCCc1ccccc1 [Compound 44, (Z)-4-((2,4-dioxothiazolidin-5-ylidene)methyl)-2-methoxyphenyl 4-phenylbutanoate]
IC50 (15-PGDH): 23.9 nM
Increment % (A549 cells): 299.80%
PGE2 concentration (A549 cells): 810.6337 pg/mL

O=C(CCCCc1ccccc1)Oc1ccc(/C=C2\SC(=O)NC2=O)cc1Br [Compound 30, (Z)-2-bromo-4-((2,4-dioxothiazolidin-5-ylidene)methyl)phenyl 5-phenylpentanoate]
IC50 (15-PGDH): 23.5 nM
Increment % (A549 cells): 42.35%
PGE2 concentration (A549 cells): 280.7203 pg/mL

COc1cc(/C=C2\SC(=O)NC2=O)ccc1OC(=O)C1CC1 [Compound 31, (Z)-4-((2,4-dioxothiazolidin-5-ylidene)methyl)-2-methoxyphenyl cyclopropanecarboxylate]
IC50 (15-PGDH): 1100 nM
Increment % (A549 cells): 1.13%
PGE2 concentration (A549 cells): 199.4327 pg/mL

CCOc1cc(/C=C2\SC(=O)NC2=O)ccc1OC(=O)c1ccccc1.O=C(O)c1ccccc1 [Compound 56, (Z)-4-((2,4-dioxothiazolidin-5-ylidene)methyl)-2-ethoxyphenyl benzoate]
IC50 (15-PGDH): 298 nM
Increment % (A549 cells): −31.65%
PGE2 concentration (A549 cells): 108.7675 pg/mL

O=C(O)c1ccccc1.O=C1NC(=O)/C(=C/c2ccc(OC(=O)c3ccccc3)c(Br)c2)S1 [Compound 26, (Z)-2-bromo-4-((2,4-dioxothiazolidin-5-ylidene)methyl)phenylbenzoate]
IC50 (15-PGDH): 25.4 nM
Increment % (A549 cells): −11.12%
PGE2 concentration (A549 cells): 175.2752 pg/mL

CCOc1cc(/C=C2\SC(=O)NC2=O)ccc1OC(=O)CCc1ccccc1 [Compound 58, (Z)-4-((2,4-dioxothiazolidin-5-ylidene)methyl)-2-ethoxyphenyl 3-phenylpropanoate]
IC50 (15-PGDH): 94.3 nM
Increment % (A549 cells): 7.97%
PGE2 concentration (A549 cells): 171.8161 pg/mL

O=C(CCCCc1ccccc1)Oc1cccc(/C=C2\SC(=O)NC2=O)c1Cl [Compound 90, (Z)-2-chloro-3-((2,4-dioxothiazolidin-5-ylidene)methyl)phenyl 5-phenylpentanoate]
IC50 (15-PGDH): 46 nM
Increment % (A549 cells): 98.11%
PGE2 concentration (A549 cells): 416.8478 pg/mL

COc1cc(/C=C2\SC(=O)NC2=O)ccc1OC(=O)CCCC1CCCCC1 [Compound 39, (Z)-4-((2,4-dioxothiazolidin-5-ylidene)methyl)-2-methoxyphenyl 4-cyclohexylbutanoate]
IC50 (15-PGDH): 17.5 nM
Increment % (A549 cells): 220.24%
PGE2 concentration (A549 cells): 649.318 pg/mL

COc1cc(/C=C2\SC(=O)NC2=O)ccc1OC(=O)CCCCC1CCCCC1 [Compound 40, (Z)-4-((2,4-dioxothiazolidin-5-ylidene)methyl)-2-methoxyphenyl 5-cyclohexylpentanoate]
IC50 (15-PGDH): 28.2 nM
Increment % (A549 cells): 7.88%
PGE2 concentration (A549 cells): 218.7373 pg/mL

O=C(CC1CCCC1)Oc1ccc(/C=C2\SC(=O)NC2=O)cc1Cl [Compound 4, (Z)-2-chloro-4-((2,4-dioxothiazolidin-5-ylidene)methyl)phenyl 2-cyclopentylacetate]
IC50 (15-PGDH): 78.3 nM
Increment % (A549 cells): 103.32%
PGE2 concentration (A549 cells): 556.6271 pg/mL

O=C(CCCCc1ccccc1)Oc1ccc(/C=C2\SC(=O)NC2=O)cc1 [Compound 75, (Z)-4-((2,4-dioxothiazolidin-5-ylidene)methyl)phenyl 5-phenylpentanoate]
IC50 (15-PGDH): 92.1 nM
Increment % (A549 cells): 23.31%
PGE2 concentration (A549 cells): 159.2841 pg/mL

O=C1NC(=O)/C(=C/c2ccc(OC(=O)C3CC3)c(Br)c2)S1 [Compound 16, (Z)-2-bromo-4-((2,4-dioxothiazolidin-5-ylidene)methyl)phenyl cyclopropanecarboxylate]
IC50 (15-PGDH): 220 nM
Increment % (A549 cells): 12.12%
PGE2 concentration (A549 cells): 283.7043 pg/mL

O=C1NC(=O)/C(=C/c2ccc(OC(=O)C3CCCCC3)c(Br)c2)S1 [Compound 21, (Z)-2-bromo-4-((2,4-dioxothiazolidin-5-ylidene)methyl)phenyl cyclohexanecarboxylate]
IC50 (15-PGDH): 37.6 nM
Increment % (A549 cells): 62.47%
PGE2 concentration (A549 cells): 411.1081 pg/mL

CCOc1cc(/C=C2\SC(=O)NC2=O)ccc1OC(=O)CC1CCCCC1 [Compound 52, (Z)-4-((2,4-dioxothiazolidin-5-ylidene)methyl)-2-ethoxyphenyl 2-cyclohexylacetate]
IC50 (15-PGDH): 32.8 nM
Increment % (A549 cells): −18.49%
PGE2 concentration (A549 cells): 223.32 pg/mL
